One may read the IC50 as the concentration needed to halve the response being measured. Read a high IC50 as a need for much substance.

This note sets out measurements from ChEMBL document CHEMBL5260810, “Inhibition of bromodomain-containing protein 9 for the prevention of epigenetically-defined drug resistance” (Bioorg Med Chem Lett, 2017).

Values after ≈ are worked out from the molar mass of the structure shown. Active and inactive are the calls of the source. No cut-off for these calls is given here.

One data set deals with NB-4. In words: Cytotoxicity against human NB-4 cells measured after 8 days. In kind it is functional, cell-based. The note with it: NB-4, 192 h.
The test system of a further data set is Toledo. In words: Cytotoxicity against human Toledo cells measured after 8 days. The class given is functional, cell-based. The note with it: 192 h.
Another data set concerns HPAC. Put plainly: Antiproliferative activity against HPAC assessed as reduction in colony formation upto 20 uM supplemented with fresh medium containing compound every 3 days for 9 days by MTT staining based clonogenic assay. In kind it is functional, cell-based. The note with it: Homo sapiens, time 9.0 day.
The next data set has as its system MCF7. In words: Antiproliferative activity against human MCF7 cells assessed as reduction in colony formation up to 20 uM supplemented with fresh medium containing compound every 3 days for 9 days by MTT staining based clonogenic assay. The following applies: time 9.0 day. The class given is functional, cell-based.
Data set [1] relates to HCC1954. Put plainly: Antiproliferative activity against human HCC1954 cells assessed as reduction in colony formation upto 20 uM supplemented with fresh medium containing compound every 3 days for 9 days by MTT staining based clonogenic assay. The class given is functional, cell-based. The note with it: time 9.0 day.
Data set [2] concerns the target T1, Bromodomain-containing protein 9 (Homo sapiens) (UniProt Q9H8M2).
T1 sequence (whole entry): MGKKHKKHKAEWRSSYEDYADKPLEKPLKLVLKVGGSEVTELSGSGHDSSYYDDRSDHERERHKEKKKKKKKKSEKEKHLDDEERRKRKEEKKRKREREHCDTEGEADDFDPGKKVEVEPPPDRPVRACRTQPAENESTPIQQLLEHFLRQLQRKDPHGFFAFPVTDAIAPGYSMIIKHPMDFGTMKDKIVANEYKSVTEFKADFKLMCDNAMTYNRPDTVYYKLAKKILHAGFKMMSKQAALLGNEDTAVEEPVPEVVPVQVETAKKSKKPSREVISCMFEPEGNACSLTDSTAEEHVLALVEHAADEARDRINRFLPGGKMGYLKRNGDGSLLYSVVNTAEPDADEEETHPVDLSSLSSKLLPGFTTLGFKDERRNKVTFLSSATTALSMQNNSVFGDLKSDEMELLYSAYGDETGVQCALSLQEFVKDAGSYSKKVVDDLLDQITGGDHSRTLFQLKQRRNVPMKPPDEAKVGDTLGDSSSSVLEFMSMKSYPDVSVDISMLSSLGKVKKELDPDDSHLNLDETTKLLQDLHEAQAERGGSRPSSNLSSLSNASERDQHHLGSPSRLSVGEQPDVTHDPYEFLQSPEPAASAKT
Put plainly: Inhibition of BRD9 in human PC-9 cells assessed as reduction in ALDH1A1 gene expression at 2 uM preincubated with erlotinib for 8 days followed by compound addition and measured after 24 hrs by RNA sequencing analysis. The class given is cell-based.

Another data set deals with HLE. In words: Cytotoxicity against human HLE cells measured after 3 days. The following applies: 72 h. In kind it is functional, cell-based.
A short description of data set [3]: Cytotoxicity against human Ci-1 cells measured after 3 days. In kind it is functional, cell-based. The following applies: Ci-1, 72 h.
In the next data set the test system is HEY. In words: Cytotoxicity against human HEY cells measured after 3 days. In kind it is functional, cell-based. The note with it: 72 h.
The subject of the next data set is OCI-AML-3. In words: Cytotoxicity against human OCI-AML-3 cells measured after 3 days. In kind it is functional, cell-based. The following applies: OCI-AML-3, 72 h.
The nature of data set [4]: Cytotoxicity against human COV504 cells measured after 3 days. In kind it is functional, cell-based. The following applies: COV504, 72 h.
In the next data set the test system is TYK-nu. Put plainly: Cytotoxicity against human TYK-nu cells measured after 3 days. The note with it: 72 h. The class given is functional, cell-based.
A further data set concerns KMS-12-PE. Put plainly: Cytotoxicity against human KMS-12-PE cells measured after 3 days. The class given is functional, cell-based. The note with it: 72 h.
Another data set has as its system U-698-M. In words: Cytotoxicity against human U-698-M cells measured after 3 days. The note with it: 72 h. In kind it is functional, cell-based.
For the next data set, the system named is OVCAR-3. Put plainly: Cytotoxicity against human OVCAR-3 cells measured after 3 days. In kind it is functional, cell-based. The following applies: OVCAR-3, 72 h.
Data set [5] is described as follows: Cytotoxicity against human Ri-1 cells measured after 3 days. In kind it is functional, cell-based. The note with it: Ri-1, 72 h.
The next data set concerns MEL-HO. Put plainly: Cytotoxicity against human MEL-HO cells measured after 3 days. In kind it is functional, cell-based. The note with it: 72 h.
The next data set has as its system CAL-12T. In words: Cytotoxicity against human CAL-12T cells measured after 3 days. In kind it is functional, cell-based. The following applies: 72 h.
For the next data set, the system named is EBC-1. In words: Cytotoxicity against human EBC-1 cells after 8 days. In kind it is functional, cell-based. The note with it: EBC-1, 192 h.
A short description of data set [6]: Cytotoxicity against human NCE-G 124 cells measured after 3 days. The following applies: NCE-G 124, 72 h. In kind it is functional, cell-based.
Data set [7] in a line: Cytotoxicity against human UKE-1 cells measured after 3 days. The following applies: UKE1, 72 h. The class given is functional, cell-based.
The nature of data set [8]: Cytotoxicity against human OCI-M1 cells measured after 3 days. In kind it is functional, cell-based. The note with it: OCI-M1, 72 h.
The subject of another data set is KMS-12-BM. In words: Cytotoxicity against human KMS-12-BM cells measured after 3 days. In kind it is functional, cell-based. The following applies: 72 h.
A short description of data set [9]: Cytotoxicity against human NTERA-2 cells after 8 days. The note with it: NTERA2, 192 h. In kind it is functional, cell-based.
Data set [10] has as its system HCC1954. Put plainly: Cytotoxicity against human HCC1954 cells measured after 3 days. The class given is functional, cell-based. The following applies: HCC1954, 72 h.
Data set [11] is described as follows: Cytotoxicity against human KMM-1 cells measured after 3 days. In kind it is functional, cell-based. The note with it: KMM-1, 72 h.
The test system of the next data set is JJN-3. Put plainly: Cytotoxicity against human JJN-3 cells measured after 3 days. The class given is functional, cell-based. The following applies: JJN-3, 72 h.
For another data set, the system named is MDA-MB-361. In words: Cytotoxicity against human MDA-MB-361 cells measured after 3 days. In kind it is functional, cell-based. The following applies: MDA-MB-361, 72 h.
Data set [12] is described as follows: Cytotoxicity against human Hs 38.T cells measured after 3 days. The note with it: 72 h. The class given is functional, cell-based.
For the next data set, the system named is NALM-6. In words: Cytotoxicity against human NALM-6 cells measured after 3 days. The class given is functional, cell-based. The following applies: NALM-6, 72 h.
Data set [13] in a line: Kinetic solubility of the compound. In kind it is physicochemical. The following applies: read-out: Kinetic_solubility.
A further data set concerns HCC1395. Put plainly: Cytotoxicity against human HCC1395 cells measured after 3 days. In kind it is functional, cell-based. The note with it: HCC1395, 72 h.
Data set [14] can be described thus: Cytotoxicity against human OVCA 420 cells measured after 3 days. The class given is functional, cell-based. The following applies: OVCA 420, 72 h.
The nature of data set [15]: Cytotoxicity against human BM-1604 cells measured after 3 days. The following applies: BM-1604, 72 h. The class given is functional, cell-based.
In a further data set the test system is Rec1. Put plainly: Cytotoxicity against human REC1 cells measured after 3 days. The class given is functional, cell-based. The note with it: Rec1, 72 h.
The next data set concerns JeKo-1. Put plainly: Cytotoxicity against human JeKo-1 cells measured after 3 days. In kind it is functional, cell-based. The following applies: JeKo-1, 72 h.
The subject of a further data set is YMB-1-E. Put plainly: Cytotoxicity against human YMB-1-E cells measured after 3 days. In kind it is functional, cell-based. The note with it: 72 h.
Data set [16] is described as follows: Cytotoxicity against human HuH-1 cells measured after 3 days. The following applies: HuH-1, 72 h. The class given is functional, cell-based.
Another data set has as its system A2780. Put plainly: Cytotoxicity against human A2780 cells measured after 3 days. In kind it is functional, cell-based. The note with it: A2780, 72 h.
The next data set concerns Raji. Put plainly: Cytotoxicity against human Raji cells measured after 3 days. In kind it is functional, cell-based. The note with it: 72 h.
The subject of a further data set is TERT-RPE1. In words: Cytotoxicity against hTERT-RPE1 cells measured after 8 days. The class given is functional, cell-based. The following applies: Homo sapiens, RPE-1, 192 h.
For the next data set, the system named is SK-BR-3. Put plainly: Cytotoxicity against human SK-BR-3 cells measured after 3 days. The class given is functional, cell-based. The following applies: SK-BR-3, 72 h.
A further data set relates to SNU-398. Put plainly: Cytotoxicity against human SNU-398 cells measured after 3 days. The class given is functional, cell-based. The following applies: SNU-398, 72 h.
Data set [17] is described as follows: Cytotoxicity against human WSU-FSCCL cells measured after 3 days. The class given is functional, cell-based. The following applies: 72 h.
A further data set deals with OVCAR-8. In words: Cytotoxicity against human OVCAR-8 cells measured after 3 days. In kind it is functional, cell-based. The following applies: OVCAR-8, 72 h.
For another data set, the system named is SNU-423. In words: Cytotoxicity against human SNU-423 cells measured after 3 days. The following applies: SNU-423, 72 h. In kind it is functional, cell-based.
In the next data set the test system is SU-DHL-1. Put plainly: Cytotoxicity against human SU-DHL-1 cells measured after 3 days. In kind it is functional, cell-based. The note with it: SU-DHL-1, 72 h.
In the next data set the test system is NAMALVA. In words: Cytotoxicity against human NAMALVA cells measured after 3 days. The class given is functional, cell-based. The note with it: 72 h.

For `C/C=C/Cn1cc(-c2ccc(C(C)(C)O)cc2OC)c2cc[nH]c2c1=O`, the IC50 in the data set with NB-4 and with Toledo was 20 µM each time. For the same molecule, the result with HPAC and in the data set with MCF7 was inactive. Further, the result in the data set with HCC1954 [1] was Active.

As to `C/C=C/Cn1cc(-c2ccc(C(=O)N3CCOCC3)cc2)c2cc[nH]c2c1=O`, in data set [2], the inhibition entry is “Active”.

Take `C/C=C/Cn1cc(-c2cc(OC)c(C(=O)N3CCOCC3)cc2OC)c2cc(C)[nH]c2c1=O`: the concentration for half-maximal inhibition (IC50) (with HLE; in [3]; in the data set on HEY; in the data set with OCI-AML-3; in [4]; with TYK-nu) was 5 µM throughout. For the same molecule, the half-maximal inhibitory concentration (IC50) (with KMS-12-PE; with U-698-M; in the data set with OVCAR-3; in data set [5]; with MEL-HO; in the data set with CAL-12T) was 5 µM in each case. The IC50 with EBC-1 came to 2 µM; in data set [6], 5 µM; in data set [7] it was 5 µM; in data set [8], 5 µM; in the data set on KMS-12-BM, 5 µM; in data set [9], 2 µM. For the same molecule, the half-inhibitory concentration (IC50) (in the data set on HCC1954 [10]; in data set [11]; with JJN-3; in the data set with MDA-MB-361; in [12]; in the data set on NALM-6) was 5 µM in each case. For the same molecule, the IC50 (in the data set on HCC1395; in data set [14]; in data set [15]; in the data set on Rec1; in the data set on JeKo-1; with YMB-1-E) was 5 µM throughout. Also, the IC50 in [16] was 5 µM; in the data set with A2780, 5 µM; with Raji, 5 µM; in the data set with TERT-RPE1, 2 µM; in the data set on SK-BR-3, 5 µM; with SNU-398 it was 5 µM. In addition, the concentration for half-maximal inhibition (IC50) (in [17]; in the data set on OVCAR-8; with SNU-423; with SU-DHL-1; with NAMALVA) was 5 µM each time. The solubility kinetic in [13] amounted to 135 µM (≈ 61 µg/mL).
